Calls of active or inactive are those of the source. The calls are words filed in the database; no cut-off is given here.
Experiments:
[1] = system: Radical scavenging activity; test: Antioxidant activity assessed as DPPH radical scavenging activity at 1500 ug/ml; assay type: functional
[2] = system: Radical scavenging activity; test: Antioxidant activity assessed as DPPH radical scavenging activity at 500 ug/ml; assay type: functional
[3] = system: Penicillium chrysogenum; test: Antifungal activity against Penicillium chrysogenum by poison plate assay method; assay type: functional, organism-based
[4] = system: Aspergillus niger; test: Antifungal activity against Aspergillus niger by poison plate assay method; assay type: functional, organism-based
[5] = system: Escherichia coli; test: Antibacterial activity against Escherichia coli by agar cup-plate assay method; assay type: functional
[6] = system: Radical scavenging activity; test: Antioxidant activity assessed as DPPH radical scavenging activity at 2500 ug/ml; assay type: functional
[7] = system: Staphylococcus aureus; test: Antibacterial activity against Staphylococcus aureus by agar cup-plate assay method; assay type: functional
[8] = system: Radical scavenging activity; test: Antioxidant activity assessed as DPPH radical scavenging activity at 1000 ug/ml; assay type: functional
[9] = system: Radical scavenging activity; test: Antioxidant activity assessed as DPPH radical scavenging activity at 40 ug/ml; assay type: functional
[10] = system: Radical scavenging activity; test: Antioxidant activity assessed as DPPH radical scavenging activity at 20 ug/ml; assay type: functional
[11] = system: Radical scavenging activity; test: Antioxidant activity assessed as DPPH radical scavenging activity at 30 ug/ml; assay type: functional
[12] = system: Radical scavenging activity; test: Antioxidant activity assessed as DPPH radical scavenging activity at 50 ug/ml; assay type: functional

Row | Compound | Activity [1] | Activity [2] | inhibition zone (IZ) [3] | inhibition zone (IZ) [4] | inhibition zone (IZ) [5] | Activity [6] | inhibition zone (IZ) [7] | Activity [8] | Activity [9] | Activity [10] | Activity [11] | Activity [12]
1 | Clc1ccc(/C=C/c2ccc(Cl)cc2Cl)cc1 | 45.7% | 41.3% | inactive | inactive | inactive | 47.2% | 24 mm | 43.5% | – | – | – | –
2 | O=C1O[C@H]([C@@H](O)CO)C(O)=C1O | – | – | – | – | – | – | – | – | 92% | 80.9% | 86.7% | 94.7%
3 | Fc1ccc(/C=C/c2ccc(F)cc2F)cc1 | 50.3% | 45.3% | inactive | inactive | inactive | 52.5% | 30 mm | 48% | – | – | – | –
4 | Fc1ccc(/C=C/c2ccc(Cl)cc2Cl)cc1 | 37.8% | 35.2% | Active | inactive | inactive | 39.3% | 18 mm | 37.1% | – | – | – | –
5 | Cc1ccc(/C=C/c2ccc(C)cc2)cc1 [(E)-1,2-DI-P-TOLYLETHENE] | 37.1% | 34.9% | inactive | inactive | inactive | 38% | 20 mm | 35.7% | – | – | – | –
6 | Clc1ccc(/C=C/c2ccc(Cl)c(Cl)c2)c(Cl)c1 | 54.2% | 46.5% | Active | inactive | inactive | 58% | 28 mm | 49.1% | – | – | – | –
7 | Cc1ccc(/C=C/c2ccc(F)cc2)cc1 | 39.5% | 35.4% | inactive | inactive | inactive | 45.4% | inactive | 36.4% | – | – | – | –
8 | Clc1ccc(/C=C/c2ccc(Cl)cc2Cl)c(Cl)c1 | 50.2% | 44.6% | inactive | inactive | inactive | 56.4% | 24 mm | 48.7% | – | – | – | –
9 | Fc1ccc(/C=C/c2ccc(Cl)cc2)cc1 | 41.6% | 37.4% | Active | inactive | inactive | 45.5% | 20 mm | 40.8% | – | – | – | –
10 | Cc1ccc(/C=C/c2ccc(Cl)cc2Cl)cc1 | 37.1% | 34.8% | inactive | inactive | inactive | 39.1% | 12 mm | 36.4% | – | – | – | –
11 | CC1(C)S[C@@H]2[C@H](NC(=O)Cc3ccccc3)C(=O)N2[C@H]1C(=O)O [PENICILLIN G] | – | – | – | – | 17 mm | – | 40 mm | – | – | – | – | –
12 | Fc1ccc(/C=C/c2ccc(F)cc2)cc1 | 44.9% | 35.2% | Active | inactive | inactive | 53.8% | 24 mm | 37.4% | – | – | – | –
13 | Clc1cccc(/C=C/c2ccc(Cl)cc2Cl)c1 | 56.1% | 44.7% | Active | inactive | inactive | 61.4% | 26 mm | 49.7% | – | – | – | –
14 | Fc1ccc(/C=C/c2cccc(F)c2)cc1 | 47.1% | 40.5% | Active | inactive | inactive | 49.5% | 28 mm | 42.1% | – | – | – | –
15 | COC1=CC(=O)C[C@@H](C)[C@]12Oc1c(Cl)c(OC)cc(OC)c1C2=O | – | – | Active | Active | – | – | – | – | – | – | – | –
16 | Fc1ccc(/C=C/c2ccc(F)c(F)c2)cc1 | 46.5% | 43.9% | inactive | inactive | inactive | 48.1% | 36 mm | 44.6% | – | – | – | –
17 | Fc1ccc(/C=C/c2cccc(Cl)c2)cc1 | 37.8% | 33% | Active | inactive | inactive | 39.8% | 22 mm | 35.6% | – | – | – | –
